# Reference: US4131615A, “Furan derivative for use as pharmaceutical product particularly for the treatment of rheumatic illnesses” (A. Wasserman S.p.A., priority 1977, dated 1978)
# Legend:
# [1] = tested on: edema induced by Carrageenan; test: Anti-inflammatory activity, Carrageenan-induced edema; assay type: in vivo, male Sprague Dawley rats; conditions: 80 mg/Kg oral, 30 minutes before Carrageenan, after 3 hours
# Procedure: (§1) The product of the EXAMPLE 1, ±αmethyl-4-(furan-2-carbonyl)phenyl acetic acid, was subjected to toxicological and pharmacological tests in rats and mice. The animals used were Sprague Dawley rats and Swiss mice of both sexes, to which the product was administered orally as a 2% suspension in gum arabic parenterally as the sodium salt.
# An edema was induced in male rats weighing about 120 grams by injection into the aponeurosis under the plantaris of the left foot of 0.1 ml of 1% Carrageenan in saline.
# The oral administration of 80-40-20 mg/Kg of product, 30 minutes before the inflammatory agent, reduced after 3 hours the development of the edema by rispectively 53%-47% -23% with respect to that induced in the controls.
# [2] = tested on: experimentally induced arthritis (Freund's adjuvant arthritis); test: Freund's adjuvant arthritis; assay type: in vivo; conditions: 20-40 mg/Kg oral, rat, confirmed by radiologic test
# [3] = Acute oral toxicity in rats; parameters: species or system female Sprague Dawley rats; conditions: in vivo, rat, 14 days, approximate value
# Procedure: as §1
# (§2) This has been tested in male and female mice weighing from 18 to 22 g and in female rats weighing from 90 to 120 grams.
# (§3) The product was administered to groups of 6 mice and groups of 6 rats, mortality being looked for 14 days after the administration.
# arterial pressure = test: Action on arterial pressure; assay type: in vivo; conditions: endovenous injection, 2.5-12.5-62.5 mg/Kg, rabbit
# Text: 7) Action on arterial pressure.
# Yeast-Induced fever = test: Antipyretic Effect in Yeast-Induced fever; assay type: in vivo, female Sprague Dawley rats; conditions: 80 mg/Kg oral, after 60 minutes (peak-effect)
# Procedure: as §1
# 5) Antipyretic Effect in Yeast-Induced fever.
# The oral administration of rispectively 80-40-20 mg/Kg of the product to female rats reduces the increase in temperature of the rectum, caused by the injection under the skin of 10 ml/Kg of 15% brewer's yeast in 1% arabic gum, by rispectively 71%-63%-33% after 60 minutes (peak-effect) from the administration.
# [4] = tested on: Cotton-Pellet induced granuloma; test: Anti-inflammatory activity on Cotton-Pellet induced granuloma; assay type: in vivo, female Sprague Dawley rats; conditions: 15 mg/Kg oral daily for 7 days, divided into 4 administrations over 9 hours
# Procedure: as §1
# 3) Anti-inflammatory activity on Cotton-Pellet induced granuloma.
# The oral administration daily for 7 days of a dose of 15 mg/Kg of the product, divided into 4 administrations taken over a time of 9 hours, reduced the formation of granulomatous tissue formed around Cotton-Pelletsplanted aseptically under the skin of female rats, weighing from 180 to 200 grams, by 17% with respect to controls.
# [5] = Acute oral toxicity in mice; parameters: species or system male and female Swiss mice; conditions: in vivo, mouse, 14 days, approximate value
# Procedure: as §1, §2, §3
# [6] = tested on: Nystatin subplantaris edema; test: Curative activity, Nystatin subplantaris edema; assay type: in vivo; conditions: rat, doses equal to those cited above (80-40-20 mg/Kg)
# Procedure: as §1
# [7] = tested on: contortions caused by phenyl-p-benzoquinone; test: Analgesic activity, phenyl-p-benzoquinone contortions; assay type: in vivo, female Swiss mice; conditions: Mus musculus; oral, female mice, contortions by intraperitoneal 0.02% phenyl-p-benzoquinone
# Procedure: as §1
# The oral administration of the product to female mice weighing from 18 to 22 grams reduced the number of contortions caused by the intraperitoneal injection of 0.1 ml/10 g of body weight of a 0.02% solution of phenyl-p-benzoquinone.
smiles,measurement,setting,value
"CC(C(=O)O)c1ccc(C(=O)c2ccco2)cc1 (racemic) [Example 1, ±α-methyl-4-(furan-2-carbonyl)-phenylacetic acid]",reduction of the development of the edema with respect to controls,[1],53%
same,Recovery from experimentally induced arthritis,[2],Recovery from experimentally induced arthritis in the rat (Freund's adjuvant arthritis) has been obtained
same,LD50 at 336 h,[3],~980 mg/kg
same,variations in the blood pressure,arterial pressure,does not induce significant variations in the blood pressure
same,reduction of the increase in temperature of the rectum,Yeast-Induced fever,71%
same,reduction of the formation of granulomatous tissue with respect to controls,[4],17%
same,LD50 at 336 h,[5],~1000 mg/kg
same,regress of the Nystatin subplantaris edema (curative activity),[6],induce in the rat a regress of the Nystatin subplantaris edema
same,ED50,[7],4.35 mg/kg
